According to article PMC11677424, “Early-Stage IM Treatment with the Host-Derived Immunostimulant CPDI-02 Increases Curative Protection of Healthy Outbred Mice Against Subcutaneous Infection with Community-Acquired Methicillin-Resistant Staphylococcus aureus USA300” (Pharmaceutics, 2024):

What was measured:
[1] = test system: pro-inflammatory cytokines/chemokines in subcutaneous abscesses; assay: Pro-inflammatory cytokines and chemokines in subcutaneous abscesses (multiplex ELISA); assay type: in vivo, female outbred CD-1 mice; settings: single IM 50 mg/kg at 6 h post-challenge, n = 5
Protocol: At 3 h and 18 h post-treatment (Section 2.4: single IM treatment), mice were euthanized (n = 5 per cohort per time point), then abscess and skin biopsies were collected (Section 2.5), suspended in PBS [2 mL], and homogenized in C tubes (Miltenyi Biotec 130-093-237) using a gentleMACS Dissociator (Miltenyi Biotec 130-093-235, program B). Tissue homogenates were stored at −20 °C until analysis. Homogenized abscess tissues were then analyzed using a V-PLEX Pro-inflammatory Panel 1 Mouse Kit (Meso Scale Diagnostics K15048D-1) on a MESO QuickPlex SQ 120MM (MESO, Rockville, MD, USA) to measure the inflammatory markers of the abscesses.

[2] = test system: CA-MRSA USA300; settings: cited from earlier work
Source text: Consistent with protection, SQ treatment with CPDI-02 increased local levels of IL-1β, IL-6, and CXCL1 and NP recruitment to the abscess. In contrast, SQ treatment of C5aR1 knockout mice with CDPI-02 had no effect against SQ infection with CA-MRSA up to ...

[3] = test system: primary human neutrophils (NPs); settings: cited from earlier work
Source text: (§1) Complement Peptide-Derived Immunostimulant-02 (CPDI-02) (formerly EP67) is a novel, second-generation host-derived decapeptide agonist of […] (C5) Receptor 1 (C5aR1/C5a1R/CD88), which is based on the C-terminal pharmacophore of human Complement Peptide C5a (hC5a).

[4] = test system: primary human mononuclear phagocytes (MPs); settings: cited from earlier work
Source text: as §1

[5] = test system: healthy male and female outbred CD-1 mice; assay: Repeat IM dosing in healthy CD-1 mice; assay type: in vivo
Protocol: Sixty CD-1 mice (thirty male and thirty female) approximately six weeks old were randomized into six cohorts (three cohorts for each gender) and then intramuscularly administered either vehicle alone (filter-sterilized 0.2 μm endotoxin-free PBS), vehicle containing CPDI-02 at 50% the observed MTD [65 mg/kg], or CPDI-02 suspended in PBS at 100% the observed MTD [130 mg/kg] twice a week over 32 days (nine doses total). Mice were weighed prior to each dose administration. On the day of administration, mice were assigned a Pain and Distress Assessment Score (Table S1). Four days after the last treatment, through terminal cardiac bleed, whole blood was collected for complete blood count (CBC) with differential (Abaxis VetScan® HM5 Hematology Analyzer, Union City, CA, USA) and blood chemistry (Abaxis VetScan® VS-2 Blood Chemistry Analyzer). In addition, injection site muscle tissues were collected, fixed in 10% formalin for 48 h, and then embedded in paraffin. Paraffin samples were cut into sections and underwent an H&E stain, then analyzed for signs of inflammation and other tissue abnormalities utilizing a Nikon Eclipse E600 (Nikon Corporation, Tokyo, Japan) at 200× magnification, and imaged using a Lumenera Infinity 2 Microscope Camera.

[6] = test system: CA-MRSA USA300 LAC; assay: CA-MRSA burden of subcutaneous abscesses after single IM treatment; assay type: in vivo, Staphylococcus aureus; settings: female CD-1 mice, single IM 50 mg/kg at 6 h post-challenge, Day 1 post-challenge
Protocol: At 24 h post-challenge (Section 2.4: single IM treatment), mice were euthanized (n = 5 per cohort) and rear flanks were disinfected with 70% EtOH. Abscess and skin biopsies (Tru-Punch Sterile Disposable Biopsy Punch Razors, 8 mm^2, Sklar instruments 961130) were suspended in TSB [2 mL] and homogenized in C tubes (Miltenyi Biotec 130-093-237, Bergisch Gladbach, DE) using a gentleMACS Dissociator (Miltenyi Biotec 130-093-235, program B). Homogenized abscess tissues were serially diluted in PBS and plated on TSA plates and incubated at 37 °C for 24 h, and bacterial colonies were counted. Bacterial colony counts per abscess were normalized to starting tissue weights and compared using a Mann–Whitney test (nonparametric t-test). Sections of paraffin-embedded tissues collected above were also Gram-stained and analyzed on a Nikon Eclipse E600 (Minato City, Japan) at 200× magnification and imaged using a Lumenera Infinity 2 Microscope Camera (Ottawa, ON, Canada).

SMILES: CSCC[C@H](NC(=O)[C@H](CC(=O)O)NC(=O)[C@H](CCCCN)NC(=O)[C@H](Cc1ccccc1)NC(=O)[C@H](CO)NC(=O)[C@@H](N)Cc1ccc(O)cc1)C(=O)N1CCC[C@H]1C(=O)N(C)[C@@H](CC(C)C)C(=O)N[C@H](C)C(=O)N[C@@H](CCCNC(=N)N)C(=O)O [CPDI-02]
- levels of IFN-γ, IL-2, IL-4, IL-5, IL-6, IL-10, IL-12p70, CXCL-1 [KC/GRO], TNF-α in subcutaneous abscesses ([1]; 3 h and 18 h post-treatment): no effect
- levels of IL-1β in subcutaneous abscesses vs vehicle alone ([1]; 3 h post-treatment): decreased
- effect against SQ infection with CA-MRSA vs inactive scCPDI-02 ([2]; C5aR1 knockout mice, SQ treatment, up to 48 h post-challenge): no effect
- local levels of IL-1β, IL-6 and CXCL1 and NP recruitment to the abscess ([2]; outbred mice, prophylactic SQ treatment): increased
- maximum abscess surface area, CA-MRSA load per gram of tissue and time to abscess resolution vs inactive scCPDI-02 ([2]; outbred mice, repeat SQ treatment before and after SQ challenge, three injections total, 12.5 mg/kg): significantly decreased
- EC50 [3]: 160 µM
- potency for activating MPs over NPs ([4]; primary human MPs vs primary human NPs): 10^3 fold
- EC50 ([4]; primary human MPs): 0.167 µM
- inflammation around the injection site vs vehicle alone ([5]; IM 65 and 130 mg/kg, dose-dependent, greater proportion of female than male mice, H&E): increased signs of mild to severe inflammation
- mortality vs vehicle alone ([5]; female mice, repeat IM 130 mg/kg, after the eighth and ninth IM injection, p = 0.0022): increased mortality
- signs of distress up to 2 h after injection ([5]; male and female CD-1 mice, IM 65 or 130 mg/kg, 9 injections, any treatment group): No signs of distress
- weight gain ([5]; male or female CD-1 mice, IM 65 or 130 mg/kg twice per week over 32 days, 9 injections, n = 10): no effect
- effect on CBC (including platelets, platecrit) or blood chemistry vs vehicle alone ([5]; male or female mice, IM 65 or 130 mg/kg, up to 4 days after final injection (Day 32), n = 5): did not
- inflammation in thymus, heart, lungs, brain, liver, spleen, kidneys, femur bone marrow, popliteal lymph nodes, Peyer's patches ([5]; repeat IM 65 or 130 mg/kg, H&E): no signs of inflammation
- detectable CA-MRSA in subcutaneous abscesses (Gram staining) vs vehicle ([6]; histochemistry): qualitatively decreased
- CA-MRSA CFU/g of abscess tissue ([6]; mean ± SD, vehicle 3 × 10^6 ± 2 × 10^6, SD): 1.8 × 10^6 ± 0.8 × 10^6 CFU/g of abscess tissue
